Experimental data as given in ChEMBL document CHEMBL5233224, “Therapeutic potential of targeting SHP2 in human developmental disorders and cancers” (Eur J Med Chem, 2020).

Assays:
[1] = molecular target: T1, Tyrosine-protein phosphatase non-receptor type 11 (Homo sapiens, UniProt Q06124); experiment: Inhibition of human SHP2 (225 to 541 residues) using pNPP as substrate by microplate reader based analysis
T1 sequence (Q06124 whole entry): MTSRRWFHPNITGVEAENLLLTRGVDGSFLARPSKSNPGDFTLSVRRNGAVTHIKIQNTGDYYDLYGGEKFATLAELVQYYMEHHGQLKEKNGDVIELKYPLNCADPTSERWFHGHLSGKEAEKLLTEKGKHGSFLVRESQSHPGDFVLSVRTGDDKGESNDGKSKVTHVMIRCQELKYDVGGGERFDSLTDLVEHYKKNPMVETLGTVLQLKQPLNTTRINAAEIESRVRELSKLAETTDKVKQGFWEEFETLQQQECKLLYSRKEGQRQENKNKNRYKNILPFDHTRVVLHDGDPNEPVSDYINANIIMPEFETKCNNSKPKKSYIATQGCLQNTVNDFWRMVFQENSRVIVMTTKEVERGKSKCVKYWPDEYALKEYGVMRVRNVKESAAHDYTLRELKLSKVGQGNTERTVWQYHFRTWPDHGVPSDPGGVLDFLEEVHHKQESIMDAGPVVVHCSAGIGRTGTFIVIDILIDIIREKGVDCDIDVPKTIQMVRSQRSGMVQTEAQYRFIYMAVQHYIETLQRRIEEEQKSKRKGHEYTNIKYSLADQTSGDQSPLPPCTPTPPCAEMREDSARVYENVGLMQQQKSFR

[2] = molecular target: T1, Tyrosine-protein phosphatase non-receptor type 11; experiment: Inhibition of GST fused SHP2 PTP domain (unknown origin) using Thr-Arg-Asp-Ile-Tyr[PO3H2]-Glu-Thr-Asp-Tyr-Tyr as substrate incubated for 30 mins by malachite green staining based analysis
[3] = molecular target: T1, Tyrosine-protein phosphatase non-receptor type 11; experiment: Inhibition of SHP2 (unknown origin)
[4] = molecular target: Tyrosine-protein phosphatase non-receptor type 11 (Homo sapiens) (UniProt Q06124); experiment: Inhibition of SHP2 (unknown origin) at 100 ug/ml; settings: dose 100.0 µg/ml
[5] = molecular target: T1, Tyrosine-protein phosphatase non-receptor type 11; experiment: Inhibition of SHP2 (unknown origin) using pNPP as substrate by spectrophotometer analysis
[6] = molecular target: T1, Tyrosine-protein phosphatase non-receptor type 11; experiment: Inhibition of GST fused SHP2 PTP domain (unknown origin) using EFpYAEVGRSPPDPAK peptide as substrate incubated for 30 mins by malachite green staining based analysis
[7] = molecular target: Tyrosine-protein phosphatase non-receptor type 6 (Homo sapiens, UniProt P29350); experiment: Inhibition of SHP1 (unknown origin)
BaF3 = experiment: Antiproliferative activity against mouse BaF3 cells assessed as cell growth inhibition measured after 48 hrs by MTS assay; type: functional, cell-based; settings: BaF3, 48 h
[8] = molecular target: T1, Tyrosine-protein phosphatase non-receptor type 11; experiment: Inhibition of human His6-tagged wild type SHP2 PTP domain using pNPP as substrate by absorbance based analysis
[9] = molecular target: T1, Tyrosine-protein phosphatase non-receptor type 11; experiment: Binding affinity to SHP2 (unknown origin) assessed as inhibition constant
[10] = molecular target: T2, Receptor-type tyrosine-protein phosphatase O (Homo sapiens, UniProt Q16827); experiment: Binding affinity to GLEPP1 (unknown origin) assessed as inhibition constant
T2 sequence (Q16827 whole entry): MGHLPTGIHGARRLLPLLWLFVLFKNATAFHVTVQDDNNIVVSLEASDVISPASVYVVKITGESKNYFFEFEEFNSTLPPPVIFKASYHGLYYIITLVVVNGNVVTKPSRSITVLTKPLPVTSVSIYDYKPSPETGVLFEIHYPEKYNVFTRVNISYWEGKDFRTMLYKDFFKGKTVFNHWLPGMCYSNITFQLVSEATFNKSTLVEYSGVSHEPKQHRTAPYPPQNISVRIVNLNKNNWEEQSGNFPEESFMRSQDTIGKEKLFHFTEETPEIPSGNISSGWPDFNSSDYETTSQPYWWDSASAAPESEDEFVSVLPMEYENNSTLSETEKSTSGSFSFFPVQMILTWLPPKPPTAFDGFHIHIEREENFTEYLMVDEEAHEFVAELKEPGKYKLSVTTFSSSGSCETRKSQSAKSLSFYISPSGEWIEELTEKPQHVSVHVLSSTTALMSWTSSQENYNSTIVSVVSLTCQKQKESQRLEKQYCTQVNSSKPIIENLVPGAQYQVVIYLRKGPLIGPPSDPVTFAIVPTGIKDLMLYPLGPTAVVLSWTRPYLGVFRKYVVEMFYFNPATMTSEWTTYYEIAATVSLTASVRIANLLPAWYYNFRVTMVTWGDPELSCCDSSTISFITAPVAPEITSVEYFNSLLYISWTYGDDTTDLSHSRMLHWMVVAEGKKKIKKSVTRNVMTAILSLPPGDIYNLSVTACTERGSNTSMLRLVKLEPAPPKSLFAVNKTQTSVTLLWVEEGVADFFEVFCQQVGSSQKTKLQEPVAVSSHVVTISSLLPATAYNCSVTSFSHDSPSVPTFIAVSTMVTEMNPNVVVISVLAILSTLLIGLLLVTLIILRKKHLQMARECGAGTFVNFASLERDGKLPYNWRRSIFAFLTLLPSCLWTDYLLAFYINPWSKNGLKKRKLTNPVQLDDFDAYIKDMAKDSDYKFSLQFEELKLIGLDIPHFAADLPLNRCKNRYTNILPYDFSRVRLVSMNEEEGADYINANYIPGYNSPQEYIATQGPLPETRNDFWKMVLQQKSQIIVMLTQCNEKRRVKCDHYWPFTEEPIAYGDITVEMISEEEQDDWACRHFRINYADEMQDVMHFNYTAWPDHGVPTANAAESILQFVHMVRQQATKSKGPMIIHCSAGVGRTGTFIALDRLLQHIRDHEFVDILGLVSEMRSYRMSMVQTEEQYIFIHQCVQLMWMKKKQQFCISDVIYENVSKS

Chain of Tyrosine-protein phosphatase non-receptor type 6 (P29350 whole entry): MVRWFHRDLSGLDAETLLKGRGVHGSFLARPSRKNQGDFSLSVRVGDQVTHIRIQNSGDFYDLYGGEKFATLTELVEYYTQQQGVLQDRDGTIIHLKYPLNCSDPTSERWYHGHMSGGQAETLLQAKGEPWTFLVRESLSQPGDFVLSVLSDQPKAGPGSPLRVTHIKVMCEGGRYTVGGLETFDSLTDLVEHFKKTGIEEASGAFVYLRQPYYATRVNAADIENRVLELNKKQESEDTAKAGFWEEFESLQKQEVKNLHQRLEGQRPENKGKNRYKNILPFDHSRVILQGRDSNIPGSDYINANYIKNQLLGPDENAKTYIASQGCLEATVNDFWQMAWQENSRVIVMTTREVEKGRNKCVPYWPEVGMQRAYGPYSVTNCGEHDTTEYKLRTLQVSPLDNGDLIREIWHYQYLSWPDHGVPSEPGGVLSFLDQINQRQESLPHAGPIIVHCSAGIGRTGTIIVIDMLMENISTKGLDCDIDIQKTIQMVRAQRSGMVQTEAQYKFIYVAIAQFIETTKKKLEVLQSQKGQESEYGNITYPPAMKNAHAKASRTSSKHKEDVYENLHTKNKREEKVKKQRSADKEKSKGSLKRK

Compound: CCOC(=O)c1ccc(N2N=C(c3ccc([N+](=O)[O-])cc3)/C(=N/Nc3ccc(S(=O)(=O)O)cc3)C2=O)cc1
- IC50 [1]: 0.63 µM

Compound: Cc1cc(C)c2c(c1)[nH]c1nnc(SCC(=O)NCc3cccs3)nc12
- IC50 [2]: 13.9 µM

Compound: O=C1C=CC(=O)C(c2cc(Cl)ccc2Cl)=C1
- IC50 [3]: 0.4 µM

Compound: (3R,4S,5R)-1-(((3S,4R,5R)-3-(carboxymethyl)-1-hydroxy-5-((R)-1-hydroxypropan-2-yl)-2,6,7-trioxa-1l5-stibabicyclo[2.2.1]heptan-1-yl)oxy)-5-((R)-1,2-dihydroxyethyl)-1-hydroxy-2,6,7-trioxa-1l5-stibabicyclo[2.2.1]heptane-3-carboxylic acid
- inhibition [4]: 99%

Compound: COc1cccc(-c2nnc3n(Cc4ccc(C(=O)N5CCC[C@H]5C(=O)O)cc4Cl)c(=O)c4ccccc4n23)c1O
- IC50 [3]: 18.9 µM

Compound: O=C(O)c1ccc(O)c(-c2nnc3n(Cc4ccccc4Cl)c(=O)c4ccccc4n23)c1
- IC50 [3]: 21 µM

Compound: C=C/C(=C/C(=O)C[C@H](C)C[C@@H](C)CC[C@H](O)[C@H](C)C(=O)C[C@@H](O)[C@H](C)[C@@H](C)OC(=O)C[C@@H](O)/C(C(=O)O)=C(\C)C(=O)O)CC
- IC50 [5]: 2.9 µM

Compound: O=C(CCn1cnc2sc3c(c2c1=O)CCCCC3)Nc1ccccc1[N+](=O)[O-]
- IC50 [6]: 9.97 µM
- IC50 [7]: > 100 µM
- IC50 (BaF3): 10.7 µM

Compound: C=CC(=O)Nc1ccnc2ccccc12
- IC50 [8]: 35 µM

Compound: CCCCCCN(Cc1ccc(C#Cc2ccc(CCCC)cc2)cc1)c1ccc(O)c(C(=O)O)c1
- Ki [9]: 0.652 µM
- Ki [10]: 0.123 µM
